Here are results for seven molecules from article PMC11435058, “Synthesis of New Thiazole-Privileged Chalcones as Tubulin Polymerization Inhibitors with Potential Anticancer Activities” (Pharmaceuticals, 2024).

Data set [1] concerns NCI-H226. The data set is described as follows: NCI-60 anticancer screen (SRB; single dose and five doses). To be noted: Homo sapiens; for GI50 / IC50: NCI-H226; for activity at 10 µM: NCI-H226, 48 h, read-out: Growth Percentage; for CC50: NCI-H226, read-out: LC50; for IC (TGI): NCI-H226, read-out: TGI.
Data set [2] relates to MDA-MB-435. The description is as above. The conditions noted are these: Homo sapiens; for GI50 / IC50: MDA-MB-435; for activity at 10 µM: MDA-MB-435, 48 h, read-out: Growth Percentage; for CC50: MDA-MB-435, read-out: LC50; for IC (TGI): MDA-MB-435, read-out: TGI.
Data set [3] has as its system OVCAR-3. Description: cells. To be noted: Homo sapiens; for activity at 10 µM: OVCAR-3, 48 h, read-out: Growth Percentage; for CC50: OVCAR-3, read-out: LC50; for IC (TGI): OVCAR-3, read-out: TGI.
Data set [4] relates to HCT-116. Description: NCI-60 anticancer screen (SRB; single dose and five doses). The conditions noted are these: Homo sapiens; for GI50 / IC50: HCT-116; for activity at 10 µM: HCT-116, 48 h, read-out: Growth Percentage; for CC50: HCT-116, read-out: LC50; for IC (TGI): HCT-116, read-out: TGI.
The test system of data set [5] is tubulin. Description: In vitro tubulin polymerization inhibition assay. It is filed as biochemical. The conditions noted are these: 4 mg/mL tubulin, 37°C, absorbance at 340 nm. As for the experimental part: 4.2.2. In Vitro Tubulin Polymerization Inhibition Assay.
2p, and the reference drug CD -4) with the microtubule system. Specifically, the in vitro inhibition of tubulin polymerization was evaluated for these compounds. The standard tubulin polymerization reaction was carried out, containing 100 μL of 4 mg/mL tubulin in a buffer solution of 80 mM PIPES (pH 6.9), 0.5 mM EGTA, 2 mM MgCl2, and 1 mM GTP. Polymerization was initiated by incubating the reaction […]
Under these conditions, polymerization typically reaches a maximum absorbance of […]
growth, and steady state. In this experimental set up, an absorbance of 0.1 at 340 nm corresponds to approximately 1 mg/mL of polymerized tubulin, meaning that around […]
40% of the tubulin is polymerized, allowing for the detection of both enhancers and inhibitors of polymerization. The inhibitory effect of each compound on tubulin polymerization was quantified by determining the IC50 values, which were reported as the mean ± standard deviation from three independent experiments. […]

The subject of data set [6] is NCI-H322M. The data set is described as follows: NCI-60 anticancer screen (SRB; single dose and five doses). The conditions noted are these: Homo sapiens; for activity at 10 µM: 48 h, read-out: Growth Percentage; for CC50: read-out: LC50; for IC (TGI): read-out: TGI.
Data set [7] has as its system SF-295. Described as above. The conditions noted are these: Homo sapiens; for GI50 / IC50: SF-295; for activity at 10 µM: SF-295, 48 h, read-out: Growth Percentage; for CC50: SF-295, read-out: LC50; for IC (TGI): SF-295, read-out: TGI.
Data set [8] deals with OVCAR-5. Described as above. To be noted: Homo sapiens; for GI50 / IC50: OVCAR-5; for activity at 10 µM: OVCAR-5, 48 h, read-out: Growth Percentage; for CC50: OVCAR-5, read-out: LC50; for IC (TGI): OVCAR-5, read-out: TGI.
Where [9] appears, read: OVCAR-3, five-dose, Ovarian Cancer OVCAR-3.

Consider `Cc1[nH]c(=S)sc1C(=O)/C=C/c1cccc(Cl)c1` [2e, (E)-3-(3-Chlorophenyl)-1-(4-Methyl-2-Thioxo-2,3-Dihydrothiazol-5-yl)Prop-2-En-1-One], for which the GI50 (as a rule, the concentration giving 50% growth inhibition) in [1] was found to be 4.37 µM; in data set [2] it was 2.09 µM; in data set [3] (OVCAR-3) it was 2.29 µM; in [4], 1.82 µM; in [6] it was 6.03 µM; in data set [7], 4.37 µM. The 50% growth inhibitory concentration (GI50) in [8] was 5.25 µM. The IC50 (in general, the concentration needed to halve the response being measured) in data set [1] was found to be 29.5 µM; in [2], 3.55 µM; in [3] (OVCAR-3), 4.17 µM; in [4], 2.95 µM; in data set [5], 4.93 µM; in [6], 16.2 µM. Moreover, the IC50 in data set [7] is 11.5 µM; in data set [8], 15.5 µM. The activity at 10 µM in data set [1] is 32.7%; in data set [2] it was 17.3%; in data set [3], 8.26%; in data set [4] it was 3.28%; in data set [6] it was 50.1%; in data set [7] it was 41.8%. The activity at 10 µM in [8] is 36.4%. Moreover, the CC50 is greater than 100 µM in [1]; 17 µM in [2]; 22.9 µM in data set [3]; 7.41 µM in data set [4]; 85.1 µM in data set [6]; 43.6 µM in [7]. In data set [8], the CC50 turned out to be 57.5 µM. For the same molecule, the IC (TGI) is 38.9 µM in data set [1]; 5.01 µM in data set [2]; 6.03 µM in [3]; 3.63 µM in data set [4]; 26.3 µM in data set [6]; 17 µM in data set [7]. Further, the IC (TGI) in data set [8] worked out at 19.9 µM.

Consider `COc1cc(/C=C/C(=O)c2sc(=S)[nH]c2C)cc(OC)c1OC` [2p, (E)-1-(4-Methyl-2-Thioxo-2,3-Dihydrothiazol-5-yl)-3-(3,4,5-Trimethoxyphenyl)Prop-2-En-1-One], for which the GI50 in data set [1] turned out to be 3.63 µM; in data set [2] it was 2.57 µM; in data set [3] (OVCAR-3), 2.45 µM; in data set [4], 3.16 µM; in data set [6] it was 4.57 µM; in data set [7], 5.5 µM. Moreover, in data set [8], the 50% growth inhibitory concentration (GI50) is 3.8 µM. Further, the IC50 was found to be 32.4 µM in [1]; 4.47 µM in [2]; 5.25 µM in data set [3] (setting [9]); 3.63 µM in [4]; 25.1 µM in data set [5]; 14.1 µM in data set [6]. Also, the 50% inhibitory concentration (IC50) came out at 14.5 µM in [7] and 12.3 µM in data set [8]. The activity at 10 µM was 16.4% in data set [1]; 11% in [2]; -25.2% in [3]; 6.81% in data set [4]; 42.3% in data set [7]; 6.56% in data set [8]. Further, the CC50 was greater than 100 µM in [1]; greater than 100 µM in data set [2]; 25.7 µM in data set [3]; 69.2 µM in [4]; 51.3 µM in data set [6]; 66.1 µM in [7]. In addition, the CC50 in data set [8] turned out to be 43.6 µM. Also, the IC (TGI) in data set [1] was found to be 36.3 µM; in [2], 10.5 µM; in data set [3] it was 6.92 µM; in data set [4], 14.4 µM; in data set [6], 18.6 µM; in data set [7], 21.4 µM. Further, the IC (TGI) in [8] came out at 15.1 µM.

Regarding `Cc1[nH]c(=S)sc1C(=O)/C=C/c1cccc([N+](=O)[O-])c1` [2h, (E)-1-(4-Methyl-2-Thioxo-2,3-Dihydrothiazol-5-yl)-3-(3-Nitrophenyl)Prop-2-En-1-One], the 50% growth inhibitory concentration (GI50) in [1] worked out at 11.2 µM; in data set [2], 4.57 µM; in data set [3] (OVCAR-3), 2.4 µM; in [4] it was 2.88 µM; in [6], 8.71 µM; in data set [7], 3.63 µM. In [8], this molecule returned a concentration for 50% growth inhibition (GI50) of 3.63 µM. For the same molecule, the IC50 worked out at 33.1 µM in [1]; 7.41 µM in data set [2]; 4.37 µM in data set [3] (setting [9]); 3.31 µM in [4]; 12.5 µM in [5]; 17.4 µM in data set [6]. In addition, the results for the IC50 in [7] and in [8] were 8.71 µM and 9.12 µM, respectively. The activity at 10 µM in [1] is -41.9%; in data set [2] it was -37%; in [3] it was -79.5%; in data set [4], -6.25%; in [6] it was 28.9%; in data set [7] it was 4.14%. Further, the activity at 10 µM in [8] is -37.4%. The CC50 was greater than 100 µM in [1]; 44.7 µM in data set [2]; 24 µM in data set [3]; greater than 100 µM in data set [4]; 50.1 µM in [6]; 39.8 µM in data set [7]. In [8], the CC50 amounted to 38.9 µM. For the same molecule, the IC (TGI) in data set [1] is 38 µM; in [2], 17 µM; in data set [3], 6.46 µM; in data set [4], greater than 100 µM; in data set [6], 21.9 µM; in [7], 14.8 µM. Also, in data set [8], the IC (TGI) was 13.8 µM.

In the case of `Cc1ccc(/C=C/C(=O)c2sc(=S)[nH]c2C)cc1` [2j, (E)-1-(4-Methyl-2-Thioxo-2,3-Dihydrothiazol-5-yl)-3-(p-Tolyl)Prop-2-En-1-One], the melting point (usually the temperature, or range, at which the solid turns liquid) lay in the range of 241 to 243 °C. In addition, the activity at 10 µM in data set [1] was determined as 93.8%. In data set [2], the activity at 10 µM worked out at 39%. Further, the activity at 10 µM in data set [3] turned out to be 15%. Moreover, the activity at 10 µM in data set [4] is 46.7%. For the same molecule, the activity at 10 µM in data set [6] stood at 62.1%. Also, the activity at 10 µM in [7] turned out to be 83.4%. Further, the activity at 10 µM in [8] was 138%.

In the case of `Cc1[nH]c(=S)sc1C(=O)/C=C/c1ccc(Br)cc1` [2g, (E)-3-(4-Bromophenyl)-1-(4-Methyl-2-Thioxo-2,3-Dihydrothiazol-5-yl)Prop-2-En-1-One], the concentration for 50% growth inhibition (GI50) came to 4.13 µM in data set [1]; 4.12 µM in [2]; 1.88 µM in [3] (OVCAR-3); 3.82 µM in data set [4]; 3.76 µM in [6]; 12.7 µM in [7]. This molecule also came in with a concentration for 50% growth inhibition (GI50) in [8] of 15.4 µM. Also, the activity at 10 µM in data set [1] is 54.5%; in [2], 8.26%; in [3], -12.3%; in data set [4], 16.6%; in [6] it was 44.1%; in data set [7], 90.4%. In addition, the activity at 10 µM in data set [8] came to 116%. Also, the CC50 was greater than 100 µM in [1]; 45.1 µM in data set [2]; 9.7 µM in [3]; 40.9 µM in [4]; 41.3 µM in data set [6]; 52.7 µM in data set [7]. In [8], the CC50 amounted to 57.3 µM. Besides, the IC (TGI) amounted to 25.4 µM in data set [1]; 16.7 µM in data set [2]; 4.27 µM in data set [3]; 13.1 µM in [4]; 15.2 µM in data set [6]; 25.8 µM in data set [7]. Also, the IC (TGI) in data set [8] turned out to be 29.7 µM. Further, the concentration for half-maximal inhibition (IC50) in data set [5] stood at 18.5 µM.

`COc1cccc(/C=C/C(=O)c2sc(=S)[nH]c2C)c1OC` [2m, (E)-3-(2,3-Dimethoxyphenyl)-1-(4-Methyl-2-Thioxo-2,3-Dihydrothiazol-5-yl)Prop-2-En-1-One] yielded a melting point of 239 to 240 °C. The activity at 10 µM in data set [1] stood at 90.8%. Besides, the activity at 10 µM in data set [2] amounted to 51.9%. The activity at 10 µM in [3] was found to be 24.3%. Also, the activity at 10 µM in data set [4] was 46.5%. In [6], the activity at 10 µM amounted to 62.8%. The activity at 10 µM in [7] was found to be 26.3%. In addition, the activity at 10 µM in [8] turned out to be 81.7%.

`Cc1[nH]c(=S)sc1C(=O)/C=C/c1ccc(N(C)C)cc1` [2k, (E)-3-(4-(Dimethylamino)Phenyl)-1-(4-Methyl-2-Thioxo-2,3-Dihydrothiazol-5-yl)Prop-2-En-1-One] yielded a melting point of 249 to 251 °C. The activity at 10 µM in data set [1] stood at 88.3%. Moreover, the activity at 10 µM in data set [2] stood at 58.4%. Moreover, in data set [3], the activity at 10 µM was 82.2%. The activity at 10 µM in data set [4] is 72.2%. Moreover, the activity at 10 µM in [6] worked out at 81.1%. Besides, the activity at 10 µM in [7] was found to be 79.8%. Moreover, the activity at 10 µM in data set [8] is 142%.
